Molecular target: Gamma-aminobutyric acid type B receptor subunit 1/2 (UniProt Q9Z0U4+O88871)
Assay: Displacement of [3H]baclofen from Gamma-aminobutyric acid type B receptor in rat brain membranes

Gamma-aminobutyric acid type B receptor subunit 1/2, sequence (Q9Z0U4 whole entry): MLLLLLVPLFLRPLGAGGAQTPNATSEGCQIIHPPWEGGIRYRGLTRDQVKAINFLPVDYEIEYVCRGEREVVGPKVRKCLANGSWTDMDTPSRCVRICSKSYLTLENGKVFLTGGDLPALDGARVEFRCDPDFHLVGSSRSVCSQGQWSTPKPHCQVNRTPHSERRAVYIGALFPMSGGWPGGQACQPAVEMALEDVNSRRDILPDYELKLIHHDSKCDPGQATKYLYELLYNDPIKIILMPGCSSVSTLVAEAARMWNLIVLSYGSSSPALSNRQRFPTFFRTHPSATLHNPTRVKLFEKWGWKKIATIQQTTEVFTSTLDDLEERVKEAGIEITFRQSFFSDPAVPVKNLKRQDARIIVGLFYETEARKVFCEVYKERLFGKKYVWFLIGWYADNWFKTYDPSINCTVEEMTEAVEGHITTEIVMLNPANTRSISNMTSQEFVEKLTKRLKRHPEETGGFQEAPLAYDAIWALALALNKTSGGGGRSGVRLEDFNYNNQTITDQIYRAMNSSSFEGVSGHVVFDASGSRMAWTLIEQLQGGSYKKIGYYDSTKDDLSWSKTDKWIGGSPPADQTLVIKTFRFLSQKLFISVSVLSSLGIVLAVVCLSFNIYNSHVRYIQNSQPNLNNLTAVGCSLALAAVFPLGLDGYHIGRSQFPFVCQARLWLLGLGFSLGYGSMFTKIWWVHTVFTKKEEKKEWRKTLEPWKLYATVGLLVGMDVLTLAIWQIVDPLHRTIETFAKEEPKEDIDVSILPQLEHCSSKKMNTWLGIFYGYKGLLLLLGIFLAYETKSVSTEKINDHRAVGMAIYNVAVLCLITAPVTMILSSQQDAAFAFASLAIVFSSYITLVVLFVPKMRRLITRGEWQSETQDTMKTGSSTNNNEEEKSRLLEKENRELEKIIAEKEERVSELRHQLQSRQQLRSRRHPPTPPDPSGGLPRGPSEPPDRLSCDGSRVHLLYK
Gamma-aminobutyric acid type B receptor subunit 1/2, sequence (O88871 whole entry): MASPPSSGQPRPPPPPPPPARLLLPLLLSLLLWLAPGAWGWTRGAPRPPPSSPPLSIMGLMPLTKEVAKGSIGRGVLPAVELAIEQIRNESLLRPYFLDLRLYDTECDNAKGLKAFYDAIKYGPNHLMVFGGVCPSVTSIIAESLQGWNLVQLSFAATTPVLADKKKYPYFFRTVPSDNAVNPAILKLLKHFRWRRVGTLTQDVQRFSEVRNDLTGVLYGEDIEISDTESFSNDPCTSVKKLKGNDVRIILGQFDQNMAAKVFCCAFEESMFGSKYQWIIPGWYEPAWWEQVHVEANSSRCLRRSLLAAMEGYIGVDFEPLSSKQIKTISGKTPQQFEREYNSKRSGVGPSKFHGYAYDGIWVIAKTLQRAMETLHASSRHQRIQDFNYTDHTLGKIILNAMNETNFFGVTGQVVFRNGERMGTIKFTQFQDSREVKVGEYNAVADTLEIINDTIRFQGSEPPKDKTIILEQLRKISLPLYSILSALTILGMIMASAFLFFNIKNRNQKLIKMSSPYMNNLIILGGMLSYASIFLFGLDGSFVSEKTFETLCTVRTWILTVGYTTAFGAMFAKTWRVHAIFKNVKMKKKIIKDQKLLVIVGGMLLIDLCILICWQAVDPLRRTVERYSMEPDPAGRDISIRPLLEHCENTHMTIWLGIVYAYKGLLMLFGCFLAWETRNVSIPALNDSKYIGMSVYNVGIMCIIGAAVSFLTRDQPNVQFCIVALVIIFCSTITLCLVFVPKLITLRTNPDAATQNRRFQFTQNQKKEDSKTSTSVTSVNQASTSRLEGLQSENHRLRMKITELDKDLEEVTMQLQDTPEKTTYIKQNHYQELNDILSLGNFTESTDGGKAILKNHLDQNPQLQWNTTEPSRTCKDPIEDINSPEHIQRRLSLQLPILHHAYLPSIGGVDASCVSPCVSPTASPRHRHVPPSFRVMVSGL

IC50: > 100 µM
SMILES: NCC1CC(=O)CC(=O)C1

From BindingDB's records for doi:10.1021/jm00148a012 (1985)
